Test results reported in patent publication US8778871B2 (Takeda Pharmaceutical Company Limited, priority 2004, dated 2014).
Starred links: 1 amine or outer side, 2 acyl side, 3 side chain; linkers in the order of their positions; H or OH if unused. Non-standard residues stand in square brackets, D forms with d. Residues, ends and D or L forms follow the SMILES beside them. *: point of attachment. Propanoyl(3-indol-3-yl) = O=C(CCc1c[nH]c2ccccc12)*; Diphenylacetyl = O=C(C(c1ccccc1)c1ccccc1)*; Arg(Me) = CNC(=N)NCCC[C@H](N)C(=O)O; Tryptamide = c1ccc2c(CCN*)c[nH]c2c1; X2 = O=C(Cc1c[nH]c2ccccc12)*; Tos = Cc1ccc(S(=O)(=O)*)cc1; X7 = O=C(c1c[nH]c2ccccc12)*; Cbz = O=C(OCc1ccccc1)*; CO = O=C([*:1])[*:2]; Bz = O=C(c1ccccc1)*; azaGly = NNC(=O)O

Legend:
hOT7T175 [1] = molecular target: T1, hOT7T175 (Homo sapiens, UniProt Q969F8); experiment: Intracellular Ca ion level-increasing activity using FLIPR (180 seconds; specific activity to Metastin (1-54)); type: cell-based; details: hOT7T175/CHO, change in intracellular calcium ion level for 180 seconds, Tables 21-23
T1 construct: expressed in transfected cells
T1 sequence (Q969F8 whole entry L364H): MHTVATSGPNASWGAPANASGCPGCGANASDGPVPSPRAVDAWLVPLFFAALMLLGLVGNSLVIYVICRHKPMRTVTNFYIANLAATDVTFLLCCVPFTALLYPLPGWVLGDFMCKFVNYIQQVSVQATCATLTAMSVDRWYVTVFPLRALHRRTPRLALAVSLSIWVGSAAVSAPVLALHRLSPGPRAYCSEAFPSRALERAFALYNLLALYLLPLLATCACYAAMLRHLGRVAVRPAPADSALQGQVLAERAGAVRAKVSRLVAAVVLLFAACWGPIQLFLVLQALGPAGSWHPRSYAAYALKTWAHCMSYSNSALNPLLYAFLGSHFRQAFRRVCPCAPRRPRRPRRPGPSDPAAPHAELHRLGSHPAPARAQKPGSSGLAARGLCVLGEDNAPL

hOT7T175 [2] = molecular target: T2, hOT7T175 (Homo sapiens, UniProt Q969F8, L364H); type: cell-based; details: hOT7T175/CHO, FLIPR, evaluation for 40 seconds after initiation of the reaction
T2 construct: expressed in transfected cells
T2 sequence (Q969F8 whole entry L364H): as above
Description: The intracellular Ca ion level-increasing activity was measured using FLIPR as in TEST EXAMPLE 2.

Compound | intracellular Ca ion level-increasing activity [specific activity to Metastin (1-54)] (hOT7T175 [1]) | Specific Act. (EC50/MS10 EC50) (hOT7T175 [2])
1-Azetidinecarbonyl-Phe-AzaGly-Leu-Arg(Me)-Trp-NH2 [Compound No. 468] | 1 | 5.2
2-(Indol-3-yl)ethylcarbamoyl-Phe-AzaGly-Leu-Arg(Me)-Trp-NH2 [Compound No. 369] | 2 | 4.8
2-Aminoethyl-Gly-D-Tyr-Asn-Trp-Asn-Ser-Phe-Gly-Leu-Arg(Me)-Phe-NH2 [Compound No. 375] | 2 | 5.2
3-Furancarbonyl-Phe-AzaGly-Leu-Arg(Me)-Trp-NH2 [Compound No. 454] | 6 | 2.5
3-Phenylpropionyl-Ala-Ser-Phe-AzaGly-Leu-Arg(Me)-Trp-NH2 [Compound No. 500] | 1 | 3.2
3-Phenylpropionyl-Asn-Ile-Phe-AzaGly-Leu-Arg(Me)-Trp-NH2 [Compound No. 506] | 1 | 1.3
3-Phenylpropionyl-Asn-Ser-Trp-AzaGly-Leu-Arg(Me)-Trp-NH2 [Compound No. 507] | 5 | 1.7
4-Aminobenzoyl-Phe-AzaGly-Leu-Arg(Me)-Trp-NH2 [Compound No. 472] | 3 | 3.4
4-Aminomethylbenzoyl-Phe-AzaGly-Leu-Arg(Me)-Trp-NH2 [Compound No. 473] | 3 | 4.2
4-Imidazolecarbonyl-Phe-AzaGly-Leu-Arg(Me)-Trp-NH2 [Compound No. 459] | 2 | 7.3
6-(Trifluoromethyl)nicotinoyl-Phe-AzaGly-Leu-Arg(Me)-Trp-NH2 [Compound No. 464] | 1 | 10.5
6-Chloronicotinoyl-Phe-AzaGly-Leu-Arg(Me)-Trp-NH2 [Compound No. 463] | 2 | 4.6
6-Methylnicotinoyl-Phe-AzaGly-Leu-Arg(Me)-Trp-NH2 [Compound No. 445] | 5 | 4.2
CNC(=N)NCCC[C@H](NC(=O)[C@H](CC(C)C)NC(=O)NNC(=O)[C@H](Cc1ccccc1)NC(=O)[C@H](CO)NC(=O)[C@H](CC(N)=O)NC(=O)CCc1c[nH]c2ccccc12)C(=O)N[C@@H](Cc1ccccc1)C(N)=O [Compound No. 260, 3-(3-Indolyl)propionyl-Asn-Ser-Phe-AzaGly-Leu-Arg(Me)-Phe-NH2] ({Propanoyl(3-indol-3-yl)}-NSF[azaGly]L[Arg(Me)]F-NH2) | 5 | 4.3
CNC(=N)NCCC[C@H](NC(=O)[C@H](CC(C)C)NC(=O)NNC(=O)[C@H](Cc1ccccc1)NC(=O)[C@H](CO)NC(=O)[C@H](CC(N)=O)NC(=O)c1c[nH]c2ccccc12)C(=O)N[C@@H](Cc1ccccc1)C(N)=O [Compound No. 265, Indole-3-carbonyl-Asn-Ser-Phe-AzaGly-Leu-Arg(Me)-Phe-NH2] (X7-NSF[azaGly]L[Arg(Me)]F-NH2) | 3 | 4.4
CNC(=N)NCCC[C@H](NC(=O)[C@H](CC(C)C)NC(=O)NNC(=O)[C@H](Cc1ccccc1)NC(=O)[C@H](CO)NC(=O)[C@H](CC(N)=O)NC(=O)Cc1c[nH]c2ccccc12)C(=O)N[C@@H](Cc1ccccc1)C(N)=O [Compound No. 266, Indol-3-acetyl-Asn-Ser-Phe-AzaGly-Leu-Arg(Me)-Phe-NH2] (X2-NSF[azaGly]L[Arg(Me)]F-NH2) | 2 | 5.4
CNC(=N)NCCC[C@H](NC(=O)[C@H](CC(C)C)NC(=O)NNC(=O)[C@H](Cc1ccccc1)NC(=O)[C@H](CO)NC(=O)[C@H](CC(N)=O)NC(=O)C(c1ccccc1)c1ccccc1)C(=O)N[C@@H](Cc1ccccc1)C(N)=O [Compound No. 268, Diphenylacetyl-Asn-Ser-Phe-AzaGly-Leu-Arg(Me)-Phe-NH2] (Diphenylacetyl-NSF[azaGly]L[Arg(Me)]F-NH2) | 1 | 4.5
CNC(=N)NCCC[C@H](NC(=O)[C@H](CC(C)C)NC(=O)NNC(=O)[C@H](Cc1ccccc1)NC(=O)[C@H](CO)NC(=O)[C@H](CC(N)=O)NC(=O)NCCc1c[nH]c2ccccc12)C(=O)N[C@@H](Cc1ccccc1)C(N)=O [Compound No. 279, 2-(indol-3-yl)ethylcarbamoyl-Asn-Ser-Phe-AzaGly-Leu-Arg(Me)-Phe-NH2] ({Tryptamide-CO}-NSF[azaGly]L[Arg(Me)]F-NH2) | 5 | 6.4
(S)-1-(Quinolin-8-yl-carbamoyl)-4-thiapentylcarbamoyl-D-Tyr-Asn-Trp-Asn-Ser-Phe-Gly-Leu-Arg(Me)-Phe-NH2 [Compound No. 400] | 1 | –
Ac-F[azaGly]L[Arg(Me)]F-NH2 [Compound No. 346] | 2 | –
Benzoyl-AzaPhe-AzaGly-Leu-Arg(Me)-Trp-NH2 [Compound No. 431] | 1 | –
Benzoyl-PheΨ(CH2O)Gly-Leu-Arg(Me)-Trp-NH2 [Compound No. 421] | ⅓ | –
Benzoyl-Pya(2)-AzaGly-Leu-Arg(Me)-Trp-NH2 [Compound No. 441] | 1 | –
Benzoyl-Pya(4)-AzaGly-Leu-Arg(Me)-Trp-NH2 [Compound No. 442] | ½ | –
Benzyl-Phe-AzaGly-Leu-Arg(Me)-Trp-NH2 [Compound No. 450] | ⅓ | –

Compound | intracellular Ca ion level-increasing activity [specific activity to Metastin (1-54)] (hOT7T175 [1]) | Specific Act. (EC50/MS10 EC50) (hOT7T175 [2])
Benzylphenethylcarbamoyl-AzaGly-Leu-Arg(Me)-Trp-NH2 [Compound No. 417] | 1 | –
Bz-A[azaGly]L[Arg(Me)]W-NH2 [Compound No. 392] | ⅕ | –
Bz-FGLRF-NH2 [Compound No. 351] | ½ | –
Cbz-F[azaGly]L[Arg(Me)]F-NH2 [Compound No. 348] | ⅕ | –
Cbz-[azaGly]L[Arg(Me)]W-NH2 [Compound No. 374] | ⅓ | –
Cyclohexanecarbonyl-Phe-AzaGly-Leu-Arg(Me)-Trp-NH2 [Compound No. 439] | 2 | –
D-Tyr-D-Pya(4)-Asn-Ser-Phe-AzaGly-Leu-Har(Me)-Phe-NH2 [Compound No. 489] | ½ | –
D-Tyr-D-Pya(4)-Asn-Ser-Phe-AzaGly-Leu-Lys-Phe-NH2 [Compound No. 487] | 1 | –
D-Tyr-D-Pya(4)-Asn-Ser-Phe-AzaGly-Leu-Orn-Phe-NH2 [Compound No. 486] | ½ | –
D-Tyr-Pya(4)-Phe-AzaGly-Leu-Arg(Me)-Trp-NH2 [Compound No. 495] | ⅙ | –
Dibenzylaminocarbamoyl-AzaGly-Leu-Arg(Me)-Trp-NH2 [Compound No. 428] | 1/10 | –
Dibenzylaminocarbamoylacetyl-Leu-Arg(Me)-Trp-NH2 [Compound No. 434] | 1/10 | –
Indole-3-acetyl-Phe-AzaGly-Leu-Arg(Me)-Phe-NH2 [Compound No. 345] | 2 | –
Indole-3-carbonyl-Phe-AzaGly-Leu-Arg(Me)-Phe-NH2 [Compound No. 344] | ½ | –
Methylthiocarbamoyl-Sar-D-Tyr-Asn-Trp-Asn-Ser-Phe-Gly-Leu-Arg(Me)-Phe-NH2 [Compound No. 397] | 5 | –
Phenylacetyl-Phe-AzaGly-Leu-Arg(Me)-Trp-NH2 [Compound No. 440] | 1 | –
Propionyl-Phe-AzaGly-Leu-Arg(Me)-Trp-NH2 [Compound No. 437] | 2 | –
Pyrazinecarbonyl-Phe-AzaGly-Leu-Arg(Me)-Trp-NH2 [Compound No. 446] | 1 | –
Tos-F[azaGly]L[Arg(Me)]F-NH2 [Compound No. 349] | ⅕ | –
Tos-Phe-AzaGly-Leu-Arg(Me)-Trp-NH2 [Compound No. 368] | ½ | –
Trifluoroacetyl-Phe-AzaGly-Leu-Arg(Me)-Trp-NH2 [Compound No. 448] | 3 | –
Z-Phe-AzaGly-Leu-Arg(Me)-Trp-NH2 [Compound No. 367] | ⅕ | –
n-Hexanoyl-Phe-AzaGly-Leu-Arg(Me)-Phe-NH2 [Compound No. 347] | ½ | –
n-Hexanoyl-Phe-AzaGly-Leu-Arg(Me)-Trp-NH2 [Compound No. 366] | ⅓ | –
